In patent US12708640B2, “Synergistic nutritional compositions for treating vestibular associated neurodegenerative diseases” (CELAGENEX RESEARCH (INDIA) PVT. LTD., priority 2021, dated 2026):

Tests used:
Format in all cases: in vivo, Albino Wistar rat
[1] = system: sodium arsanilate induced vestibular dysfunction (Vertigo disorder) in wistar rats; assay: Contact righting reflex; conditions: for Contact righting reflex (time), Average: group average of 6 animals
Description: (§1) “Evaluation of test substance on sodium arsanilate induced vestibular dysfunction (Vertigo disorder) in wistar rats”.
(§2) Vestibular dysfunction was induced in rats by intratympanic injection of sodium arsanilate an ototoxic compound. Sodium arsanilate is an arsenic derivative and intratympanic injection result was vestibular nerve degeneration in brain stem with concomitant loss of labyrinthine righting and reduced postural support with exaggerated head dorsiflexion.
(§3) All the animals were acclimatized for at least 5 days under controlled environmental condition. Total 42 animals were divided into seven groups consisting of 6 animals per group. Normal control (G1) group receiving vehicle, disease control (G2) group receiving sodium arsanilate injection only, standard group (G3) receiving reference standard (vertin) and treatment groups G4, G5, G6 & G7 were treated with the test substances. All the groups (except normal control group) were induced with sodium arsanilate via intratymphanic injection. All the treatment groups were administered daily for 7 consecutive days.
The rats were placed in a syringe core tube in a supine position, following which the recovery time for position correction to be recorded. Normal rats turned over their body position in a few seconds.

[2] = Rat body weight in the sodium arsanilate vestibular dysfunction study; conditions: rats, group value; for Body Weight, End of the treatment: after 7 days daily treatment
Description: as §1
(§4) • Test Species: Rat • Strain: Albino Wistar • Sex: Male/Female • Age: 6-8 Weeks • Body Weight: 180-200 g • Source: In house breed • Total No. of Animals: 42 Animals (7 groups of 6 animals each) • Feed: Normal chow diet (Purina lab diet 5L79 Rat and Mouse 18%) (PMI Nutrition International) Environmental Conditions:
as §3
Individual body weights were recorded at receipt, on the day of randomization, on the first day of treatment before dosing and weekly once thereafter throughout the treatment period. The body weight changes for all the animals were calculated and reported along with the body weight data.

[3] = system: sodium arsanilate induced vestibular dysfunction (Vertigo disorder) in wistar rats; assay: Air righting reflex (air reflecting index); conditions: for Air Righting Reflex (% of Rats that successfully righted themselves within 5 s), Average: group average of 6 animals
Description: as §1, §2, §3
A sponge was spread on a flat surface and the animals were placed in a supine position in the air 50 cm away above the sponge, following which the animal was dropped horizontally.
Four-legged smooth landing on the ground was considered as positive (normal animal), whereas the body or other regions landing first was considered vestibular dysfunction animals. The positive landing rate (%) of each rat in each group was recorded.

[4] = system: sodium arsanilate induced vestibular dysfunction (Vertigo disorder) in wistar rats; assay: Open field test; conditions: for Ambulation Score [the number of open-field sections entered by the rat], Average / Defecation [the number of fecal boli deposited in the open-field], Average / Grooming [the number of grooming bouts exhibited by the rat], Average / Rearing Responses [the number of times the animal raised both forefeet off the floor and extended its body], Average: group average of 6 animals; for % Improvement in Ambulation score wrt. G2 / % Improvement in Defecation wrt. G2 / % Improvement in Grooming wrt. G2 / % Improvement in Rearing Responses wrt. G2: open field test, wrt. disease control G2
Description: as §1, §2, §3
The open-field was circular, with a diameter of 90 cm, and enclosed by a wall 30 cm high. The floor and wall of the open-field was black and the floor was divided into 25 equal area sections by thin white lines. The floor was covered with a transparent plastic coating. The open-field apparatus was located inside a large wooden frame which surrounded on all sides by black curtains. The field was illuminated by two 60-W fluorescent lights located 100 cm above the floor.
At the start of each session the rats were placed in one of the peripheral sections of the open-field and the animal's behavior was monitored by an observer for 10 consecutive minutes. […] At the end of each session the rat was returned to its home cage and the floor of the open-field was cleaned and sponged over with a weak vinegar solution to remove any residual odors.

[5] = Rat feed consumption in the sodium arsanilate vestibular dysfunction study; conditions: rats, group value
Description: as §1, §4, §3
The feed consumption was calculated and reported on a daily basis throughout the study period.

[6] = animal 1, recovery time for position correction
[7] = animal 2, recovery time for position correction
[8] = animal 3, recovery time for position correction
[9] = animal 4, recovery time for position correction
[10] = animal 5, recovery time for position correction
[11] = animal 6, recovery time for position correction
[12] = animal 1, end of 7-day treatment
[13] = animal 2, end of 7-day treatment
[14] = animal 3, end of 7-day treatment
[15] = animal 4, end of 7-day treatment
[16] = animal 5, end of 7-day treatment
[17] = animal 6, end of 7-day treatment

CC(=O)NC(CC(C)C)C(=O)O (racemic) [Group 4, N-Acetyl-DL-leucine enantiomerically enriched (EE) with L-leucine]
Contact righting reflex (time) [1, 6]: 27 s | Contact righting reflex (time) [1, 7]: 26 s | Contact righting reflex (time) [1, 8]: 25 s | Contact righting reflex (time) [1, 9]: 28 s | Contact righting reflex (time) [1, 10]: 27 s | Contact righting reflex (time) [1, 11]: 28 s | Contact righting reflex (time), Average [1]: 26.83 s | contact righting reflex, improvement (wrt. the Disease Control) [1]: up to 34% | Body Weight, End of the treatment [2]: 190.77 gm | Body Weight, Initial [2]: 189.15 gm | Air Righting Reflex (% successfully righted within 5 s) ([3]; animal 1): 40% | Air Righting Reflex, Successful out of 5 [3, 12]: 2 | Air Righting Reflex (% successfully righted within 5 s) ([3]; animal 2): 60% | Air Righting Reflex, Successful out of 5 [3, 13]: 3 | Air Righting Reflex (% successfully righted within 5 s) ([3]; animal 3): 40% | Air Righting Reflex, Successful out of 5 [3, 14]: 2 | Air Righting Reflex (% successfully righted within 5 s) ([3]; animal 4): 40% | Air Righting Reflex, Successful out of 5 [3, 15]: 2 | Air Righting Reflex (% successfully righted within 5 s) ([3]; animal 5): 60% | Air Righting Reflex, Successful out of 5 [3, 16]: 3 | Air Righting Reflex (% successfully righted within 5 s) ([3]; animal 6): 40% | Air Righting Reflex, Successful out of 5 [3, 17]: 2 | Air Righting Reflex (% of Rats that successfully righted themselves within 5 s), Average [3]: 46.67% | Ambulation Score [the number of open-field sections entered by the rat] ([4]; animal 1): 210 | Defecation [the number of fecal boli deposited in the open-field] ([4]; animal 1): 2 | Grooming [the number of grooming bouts exhibited by the rat] ([4]; animal 1): 3 | Rearing Responses [the number of times the animal raised both forefeet off the floor and extended its body] ([4]; animal 1): 4 | Ambulation Score [the number of open-field sections entered by the rat] ([4]; animal 2): 200 | Defecation [the number of fecal boli deposited in the open-field] ([4]; animal 2): 3 | Grooming [the number of grooming bouts exhibited by the rat] ([4]; animal 2): 4 | Rearing Responses [the number of times the animal raised both forefeet off the floor and extended its body] ([4]; animal 2): 3 | Ambulation Score [the number of open-field sections entered by the rat] ([4]; animal 3): 220 | Defecation [the number of fecal boli deposited in the open-field] ([4]; animal 3): 4 | Grooming [the number of grooming bouts exhibited by the rat] ([4]; animal 3): 3 | Rearing Responses [the number of times the animal raised both forefeet off the floor and extended its body] ([4]; animal 3): 5 | Ambulation Score [the number of open-field sections entered by the rat] ([4]; animal 4): 220 | Defecation [the number of fecal boli deposited in the open-field] ([4]; animal 4): 2 | Grooming [the number of grooming bouts exhibited by the rat] ([4]; animal 4): 3 | Rearing Responses [the number of times the animal raised both forefeet off the floor and extended its body] ([4]; animal 4): 4 | Ambulation Score [the number of open-field sections entered by the rat] ([4]; animal 5): 210 | Defecation [the number of fecal boli deposited in the open-field] ([4]; animal 5): 3 | Grooming [the number of grooming bouts exhibited by the rat] ([4]; animal 5): 4 | Rearing Responses [the number of times the animal raised both forefeet off the floor and extended its body] ([4]; animal 5): 6 | Ambulation Score [the number of open-field sections entered by the rat] ([4]; animal 6): 220 | Defecation [the number of fecal boli deposited in the open-field] ([4]; animal 6): 4 | Grooming [the number of grooming bouts exhibited by the rat] ([4]; animal 6): 2 | Rearing Responses [the number of times the animal raised both forefeet off the floor and extended its body] ([4]; animal 6): 4 | Ambulation Score [the number of open-field sections entered by the rat], Average [4]: 213.33 | Defecation [the number of fecal boli deposited in the open-field], Average [4]: 3.00 | Grooming [the number of grooming bouts exhibited by the rat], Average [4]: 3.17 | Rearing Responses [the number of times the animal raised both forefeet off the floor and extended its body], Average [4]: 4.33 | % Improvement in Ambulation score wrt. G2 [4]: 15.23% | % Improvement in Defecation wrt. G2 [4]: 30.77% | % Improvement in Grooming wrt. G2 [4]: 59.57% | % Improvement in Rearing Responses wrt. G2 [4]: 40.62% | Feed Consumption, 0 day [5]: 16.00 gm | Feed Consumption, 7th day [5]: 16.67 gm

CNCCc1ccccn1 [Group 3, reference compound]
Contact righting reflex (time) [1, 6]: 21 s | Contact righting reflex (time) [1, 7]: 26 s | Contact righting reflex (time) [1, 8]: 28 s | Contact righting reflex (time) [1, 9]: 23 s | Contact righting reflex (time) [1, 10]: 27 s | Contact righting reflex (time) [1, 11]: 26 s | Contact righting reflex (time), Average [1]: 25.17 s | contact righting reflex, improvement (wrt. the Disease Control) [1]: around 38% | Body Weight, End of the treatment [2]: 188.10 gm | Body Weight, Initial [2]: 186.83 gm | Air Righting Reflex (% successfully righted within 5 s) ([3]; animal 1): 40% | Air Righting Reflex, Successful out of 5 [3, 12]: 2 | Air Righting Reflex (% successfully righted within 5 s) ([3]; animal 2): 60% | Air Righting Reflex, Successful out of 5 [3, 13]: 3 | Air Righting Reflex (% successfully righted within 5 s) ([3]; animal 3): 40% | Air Righting Reflex, Successful out of 5 [3, 14]: 2 | Air Righting Reflex (% successfully righted within 5 s) ([3]; animal 4): 60% | Air Righting Reflex, Successful out of 5 [3, 15]: 3 | Air Righting Reflex (% successfully righted within 5 s) ([3]; animal 5): 40% | Air Righting Reflex, Successful out of 5 [3, 16]: 2 | Air Righting Reflex (% successfully righted within 5 s) ([3]; animal 6): 60% | Air Righting Reflex, Successful out of 5 [3, 17]: 3 | Air Righting Reflex (% of Rats that successfully righted themselves within 5 s), Average [3]: 50.00% | Ambulation Score [the number of open-field sections entered by the rat] ([4]; animal 1): 200 | Defecation [the number of fecal boli deposited in the open-field] ([4]; animal 1): 3 | Grooming [the number of grooming bouts exhibited by the rat] ([4]; animal 1): 4 | Rearing Responses [the number of times the animal raised both forefeet off the floor and extended its body] ([4]; animal 1): 5 | Ambulation Score [the number of open-field sections entered by the rat] ([4]; animal 2): 210 | Defecation [the number of fecal boli deposited in the open-field] ([4]; animal 2): 4 | Grooming [the number of grooming bouts exhibited by the rat] ([4]; animal 2): 3 | Rearing Responses [the number of times the animal raised both forefeet off the floor and extended its body] ([4]; animal 2): 4 | Ambulation Score [the number of open-field sections entered by the rat] ([4]; animal 3): 215 | Defecation [the number of fecal boli deposited in the open-field] ([4]; animal 3): 2 | Grooming [the number of grooming bouts exhibited by the rat] ([4]; animal 3): 3 | Rearing Responses [the number of times the animal raised both forefeet off the floor and extended its body] ([4]; animal 3): 6 | Ambulation Score [the number of open-field sections entered by the rat] ([4]; animal 4): 230 | Defecation [the number of fecal boli deposited in the open-field] ([4]; animal 4): 3 | Grooming [the number of grooming bouts exhibited by the rat] ([4]; animal 4): 5 | Rearing Responses [the number of times the animal raised both forefeet off the floor and extended its body] ([4]; animal 4): 4 | Ambulation Score [the number of open-field sections entered by the rat] ([4]; animal 5): 220 | Defecation [the number of fecal boli deposited in the open-field] ([4]; animal 5): 4 | Grooming [the number of grooming bouts exhibited by the rat] ([4]; animal 5): 6 | Rearing Responses [the number of times the animal raised both forefeet off the floor and extended its body] ([4]; animal 5): 5 | Ambulation Score [the number of open-field sections entered by the rat] ([4]; animal 6): 225 | Defecation [the number of fecal boli deposited in the open-field] ([4]; animal 6): 3 | Grooming [the number of grooming bouts exhibited by the rat] ([4]; animal 6): 5 | Rearing Responses [the number of times the animal raised both forefeet off the floor and extended its body] ([4]; animal 6): 4 | Ambulation Score [the number of open-field sections entered by the rat], Average [4]: 216.67 | Defecation [the number of fecal boli deposited in the open-field], Average [4]: 3.17 | Grooming [the number of grooming bouts exhibited by the rat], Average [4]: 4.33 | Rearing Responses [the number of times the animal raised both forefeet off the floor and extended its body], Average [4]: 4.67 | % Improvement in Ambulation score wrt. G2 [4]: 13.91% | % Improvement in Defecation wrt. G2 [4]: 26.92% | % Improvement in Grooming wrt. G2 [4]: 44.68% | % Improvement in Rearing Responses wrt. G2 [4]: 43.75% | Feed Consumption, 0 day [5]: 15.33 gm | Feed Consumption, 7th day [5]: 16.00 gm
